Source: BindingDB's records for doi:10.1016/j.chembiol.2007.10.010 (University of Munich, 2007)

Target: T1, 3-phosphoinositide-dependent protein kinase 1 (Homo sapiens, UniProt O15530)
T1 sequence (O15530 whole entry): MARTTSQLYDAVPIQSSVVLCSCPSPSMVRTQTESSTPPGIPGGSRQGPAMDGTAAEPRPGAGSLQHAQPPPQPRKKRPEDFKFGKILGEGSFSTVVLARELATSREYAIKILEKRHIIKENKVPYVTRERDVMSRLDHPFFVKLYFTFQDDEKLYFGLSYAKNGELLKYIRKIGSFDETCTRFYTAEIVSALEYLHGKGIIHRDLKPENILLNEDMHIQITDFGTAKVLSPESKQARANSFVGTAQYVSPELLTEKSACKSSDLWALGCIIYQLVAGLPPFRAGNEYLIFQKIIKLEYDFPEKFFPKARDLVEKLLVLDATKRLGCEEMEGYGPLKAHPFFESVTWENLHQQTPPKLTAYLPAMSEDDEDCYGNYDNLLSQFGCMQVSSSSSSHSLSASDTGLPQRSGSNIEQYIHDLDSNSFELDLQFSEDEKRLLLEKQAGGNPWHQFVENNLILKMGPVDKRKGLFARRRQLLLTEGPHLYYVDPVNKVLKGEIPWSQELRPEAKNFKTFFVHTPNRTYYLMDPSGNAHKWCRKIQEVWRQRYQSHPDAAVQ
Test: In Vitro Kinase Assay
Conditions: pH 7.5; 30 °C
Source text: PDK1 protein kinase was expressed in Sf9 insect cells as human recombinant GST-fusion protein by means of the baculovirus expression systems. Protein kinase assay (33PanQinase assay) was used for measuring the kinase activity of PDK1.

| SMILES | IC50 [µM] |
| --- | --- |
| O=Nc1c(C2C(=O)Nc3ccccc32)[nH]c2ccccc12 (configuration not stated) [Indirubin-3 -monoxime] | > 100 |
| O=Nc1c(C2C(=O)Nc3ccc(Br)cc32)[nH]c2ccccc12 (configuration not stated) [5BIO] | > 100 |
